Values joined by “and” are separate entries in the source; they are usually repeats but may differ in a detail not shown here. Identical values can stand only once.
Experiments:
[1] = system: MDA-MB231 cells; experiment: MTT assay for anticancer activity, MDA-MB231 cells; type: cell-based, human; details: MDA-MB231 breast cancer cells, 3-day exposure protocol
Method: (§1) Human breast cancer cells (MDA-MB231, MCF-7) were grown in Dulbecco's modified Eagle's medium (DMEM) supplemented with 10% fetal bovine serum (FBS) and 1% penicillin (10,000 units) with streptomycin (10 mg) in a 74 cm^2 flask and incubated until 80% confluence was obtained in a humidified environment of 5% CO2-95% air at 37° C.
(§2) Cancer cells were seeded and maintained in quadruplicate in a 96-well tissue culture plate at 5×10^3 cells per well in 150 μl of the same medium. The cancer cells were incubated for 24 hours before the treatment. All compounds were dissolved in 50% DMSO. Therefore, DMSO was used as a negative control. Complexes 1-5 and cisplatin (positive control) at 0.01 μM, 0.05 μM, 0.1 μM, 1 μM, 5 μM, 10 μM, and 50 μM concentrations were prepared in DMEM. The final DMSO concentration, in each well, was less than 0.1%.
(§3) The cancer cells were treated with the synthesized compounds 1-5 and cisplatin and then incubated for […]. The medium from the wells was discarded and 100 μL of DMEM containing MTT (3-(4,5-dimethylthiazol-2-yl)-2,5-diphenyltetrazolium bromide) (5 mg/mL) was added to the wells. The cells were incubated in a CO2 incubator at 37° C. in the dark for 4 h. After incubation, a purple colored formazan (an artificial chromogenic dye, a product of the reduction of water […] tetrazolium salts, such as MTT, by dehydrogenases and reductases) was produced by the cells and appeared as dark crystals in the bottom of the wells. The medium from each well was discarded carefully to avoid disruption of the monolayer. 100 μL of isopropanol was added in each well. The solution was thoroughly mixed in the wells to dissolve the formazan crystals which ultimately results into a purple solution. The absorbance of the 96-well plate was taken at 570 nm with Mithras^2LB943 against a blank (e.g. unreduced MTT in isopropanol). All data presented are mean t standard deviation.
(§4) The in vitro cytotoxic effect of mixed ligand gold(I) complexes 1-5 against MDA-MB231 and MCF-7 were studied using the MTT assay. The in vitro cytotoxic activity depends on the exposure time and the concentrations of the complexes. For that reason, different concentrations of the complexes and a 3-day exposure protocol to determine the IC50 values for all five complexes and cisplatin were used.

[2] = system: EB-DNA system (CT DNA treated with EB); experiment: Ethidium bromide displacement fluorescence quenching (Stern-Volmer); type: binding, calf; details: EB-bound CT DNA, emission at 585-590 nm
Method: Luminescence titrations involving quenching experiments were conducted by adding increasing concentration of the complexes to a fixed concentration of EB-DNA system. The Tris-HCl buffer was used as a blank to make preliminary adjustments. The Stern-Volmer quenching constant, Ksv was obtained from the following equation (Lakowiez, R. J.; Webber, G. Quenching of fluorescence by oxygen. Probe for structural fluctuations in macromolecules. Biochem. 1973, 12, 4161-4170, incorporated herein by reference in its entirety). I0/I=1+KSV·r (4) where r is the ratio of total concentration of complex to that of DNA, and Io and I are the fluorescence intensities of EB in the absence and presence of complex.
A reliable method for studying the binding of molecules to nucleic acids is the fluorescence quenching method. Ethidium bromide (EB) is a planar cationic dye which is widely used as a sensitive fluorescence probe for native DNA. EB emits intense fluorescent light in the presence of DNA due to its strong intercalation between the adjacent DNA base pairs. The displacement technique is based on the decrease of fluorescence resulting from the displacement of EB from a DNA sequence by a quencher, and the quenching is due to the reduction of the number of binding sites on the DNA that are available to the EB (Ramachandran. E.; Raja, S. D.; Bhuvanesh, P. S. N.; Natarajan, K. Mixed ligand palladium(II) complexes of 6-methoxy-2-oxo-1,2-dihydroquinoline-3-carbaldehyde 4N-substituted thiosemicarbazones with triphenylphosphine co-ligand: Synthesis, crystal structure and biological properties. Dalton Trans. 2012, 41 13308-13323, incorporated herein by reference in its entirety). […] From the above data, it is clear that 4 replaces EB more effectively than other complexes, and this observation agreed with the results obtained from electronic absorption studies.

[3] = system: MCF-7 cells; experiment: MTT assay for anticancer activity, MCF-7 cells; type: cell-based, human; details: MCF-7 breast cancer cells, 3-day exposure protocol
Method: as §1, §2, §3, §4

[4] = system: CT-DNA; experiment: Fluorescence emission titration with CT-DNA (Scatchard); type: binding, calf; details: complex 1.3×10^−4 M, excitation 275 nm, Tris-HCl/NaCl buffer, mean standard deviations ±0.07
Method: Fluorescence experiments were carried out at a constant concentration of the complexes with increasing CT-DNA concentrations. The binding constant, K, of the gold(I) complexes was determined from Scatchard eqs. (2) and (3) by employing emission titration (Liu, D. G.; Liao, P. J.; Fang, Z. Y.; Huang, S. S.; Sheng, L. G.; Yu, Q. R. Interaction of bis(ethylene)tin(bis(salicylidene)ethylenediamine) with DNA. Anal. Sci. 2002, 18 391-395; and Healy, F. E. Quantitative determination of DNA-ligand binding using fluorescence spectroscopy. J. Chem. Educ. 2007, 84, 1304-1307, each incorporated herein by reference in their entirety). CF=CT(I/Io−P)(1−P) (2) r/CF=K(n−r) (3) where CF is the free probe (i.e. free metal complex) concentration, CT is the total concentration of the probe added, I and Io are fluorescence intensities in the presence and absence of CT-DNA, respectively, r denotes a ratio of CB (CB=CT−CF) to the DNA concentration, i.e., the bound probe concentration to the DNA concentration, K is the binding constant, “n” is the binding site number, and P is the ratio of the observed fluorescence quantum yield of the bound probe to that of the free probe. The value P was obtained as the intercept by extrapolating from a plot of I/Io vs. 1/[DNA].
The fluorescence emission titration of complexes 1-5 was carried out in order to understand the nature of binding mode of these complexes with CT-DNA. This method is highly sensitive, reproducible, and accurate. In the absence of CT-DNA, all complexes 1-5 (concentration=1.3×10^−4 M) emitted strong luminescence when excited at 275 nm in Tris-HCl/NaCl buffer with an emission maximum appearing at 340 nm. However, the subsequent addition of CT-DNA from 0.067-0.5×10^−4 M caused a gradual enhancement in the fluorescence intensity of the complexes with no apparent change in the shape and position of the emission bands (FIGS. 10A-10E), which is indicative of a strong interaction of the Au(I) drug entities with CT DNA. The hydrophobic molecular structure of CT DNA could be responsible for enhancing the fluorescence quantum yield of complexes, leading to the higher fluorescence intensity with increasing concentration of CT DNA. In addition, energy transfer from CT-DNA to metal complexes could also induce fluorescence enhancement (Arjmand, F.; Jamsheera, A.; Afzal, M.; S. Tabassum, S. Enantiomeric Specificity of Biologically Significant Cu(II) and Zn(II) Chromone Complexes Towards DNA. Chirality. 2012, 24, 977-986, Tabassum, S.; Yadav, S.; Arjmand, F. Synthesis and mechanistic insight of glycosylated Cu^II/Ni^II—Sn2^IV heterobimetallic DNA binding agents: Validation of a specific Cu^II—Sn2^IV chemotherapeutic agent for human leukemic cell line K-562. J. Organomet. Chem. 2013, 745-746, 226-234, incorporated herein by reference in its entirety).

SMILES: CCN(CC)C(=S)[S][Au-][P+](CC)(CC)CC [Complex 4, (Et)3PAu(S2CN{Et}2)]
- IC50 [1]: 0.044 µM
- Stern-Volmer quenching constant KSV [2]: 0.91
- IC50 [3]: 0.0053 µM
- Scatchard binding constant K [4]: 66000 M⁻¹

SMILES: CCN(CC)C(=S)[S][Au-][P+](C)(C)C [Complex 3, (Me)3PAu(S2CN{Et}2)]
- IC50 [1]: 0.043 µM
- Stern-Volmer quenching constant KSV [2]: 0.67
- IC50 [3]: 0.0088 µM
- Scatchard binding constant K [4]: 57000 M⁻¹

SMILES: CC(C)[P+]([Au-][S]C(=S)N(C)C)(C(C)C)C(C)C [Complex 5, (i-Pr)3PAu(S2CN{Me}2)]
- IC50 [1]: 0.7 µM
- Stern-Volmer quenching constant KSV [2]: 0.10
- IC50 [3]: 0.0078 µM and 0.0079 µM
- Scatchard binding constant K [4]: 19000 M⁻¹

SMILES: N.N.[Cl][Pt][Cl] [Cisplatin, reference compound]
- IC50 [1]: 25.8 µM
- IC50 [3]: 0.0059 µM

SMILES: CN(C)C(=S)[S][Au-][P+](C)(C)C [Complex 1, (Me)3PAu(S2CN{Me}2)]
- IC50 [1]: 0.044 µM
- Stern-Volmer quenching constant KSV [2]: 0.19
- IC50 [3]: 0.0078 µM
- Scatchard binding constant K [4]: 28000 M⁻¹

SMILES: CC[P+](CC)(CC)[Au-][S]C(=S)N(C)C [Complex 2, (Et)3PAu(S2CN{Me}2)]
- IC50 [1]: 0.055 µM
- Stern-Volmer quenching constant KSV [2]: 0.34
- IC50 [3]: 0.0064 µM
- Scatchard binding constant K [4]: 35000 M⁻¹

From US10273257B2, “Cancer cell-containing composition” (KING FAHD UNIVERSITY OF PETROLEUM AND MINERALS, priority 2016, dated 2019)
